In patent US7312330B2, “Bicycloheteroarylamine compounds as ion channel ligands and uses thereof” (Renovis, Inc., priority 2003, dated 2007):

How the values were obtained:
hVR1 = hVR1 (Homo sapiens, UniProt Q8NER1); experiment: Calcium imaging assay (Fura2) of VR1 antagonists, proton stimulation; type: cell-based; conditions: HEK 293 cells expressing hVR1; for % Inhibition @ 1 μM: calcium ion influx induced by proton stimulation (pH 5.7); for IC50: calcium ion influx induced by proton stimulation
Chain of hVR1 (Q8NER1 whole entry): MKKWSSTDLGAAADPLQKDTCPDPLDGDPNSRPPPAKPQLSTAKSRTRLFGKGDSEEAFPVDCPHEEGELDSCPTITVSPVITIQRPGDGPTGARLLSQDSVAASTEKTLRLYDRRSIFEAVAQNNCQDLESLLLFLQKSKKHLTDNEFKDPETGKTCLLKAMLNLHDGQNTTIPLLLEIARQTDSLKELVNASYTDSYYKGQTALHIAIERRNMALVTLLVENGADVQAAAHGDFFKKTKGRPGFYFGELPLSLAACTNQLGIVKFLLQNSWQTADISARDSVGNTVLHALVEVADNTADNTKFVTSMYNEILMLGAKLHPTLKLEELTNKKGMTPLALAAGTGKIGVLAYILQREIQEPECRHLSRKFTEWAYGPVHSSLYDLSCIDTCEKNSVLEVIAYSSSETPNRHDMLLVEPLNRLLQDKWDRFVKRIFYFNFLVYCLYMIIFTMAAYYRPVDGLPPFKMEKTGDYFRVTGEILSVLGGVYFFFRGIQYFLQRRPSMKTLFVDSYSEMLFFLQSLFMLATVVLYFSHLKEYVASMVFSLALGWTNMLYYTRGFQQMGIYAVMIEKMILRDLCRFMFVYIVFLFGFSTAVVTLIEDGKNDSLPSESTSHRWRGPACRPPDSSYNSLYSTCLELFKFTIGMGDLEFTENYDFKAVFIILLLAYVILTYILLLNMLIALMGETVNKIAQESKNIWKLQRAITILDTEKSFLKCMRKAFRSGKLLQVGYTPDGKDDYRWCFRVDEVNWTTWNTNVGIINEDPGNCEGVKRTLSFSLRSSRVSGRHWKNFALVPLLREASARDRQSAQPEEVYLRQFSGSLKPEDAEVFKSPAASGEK
Outline: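 HEK293 cells expressing capsaicin-insensitive hVR1 were loaded with Fura2 (5 μg/mL, 37 °C, 40 min). Compound was added, then compound plus acid agonist (10 mM citric acid, pH 5.7), with the 340/380 nm ratio read every 4 s for 3 min. Peak-minus-baseline response gave % inhibition and an ID50 from dose-response curves.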

[1] = Pharmacokinetic profile after intravenous and oral administration; type: in vivo; conditions: rat, IV 1 mg/kg, oral 5 mg/kg; for Cmax / Tmax / Vd / bioavailability: male, Sprague-Dawley, plasma
Procedure: The pharmacokinetic profile of Compound 1 was evaluated following intravenous and oral administration in rats. Sprague-Dawley male rats obtained from Charles River, San Diego, Calif. were acclimated for 24 hours.
Compounds of this invention were formulated at a concentration of 0.5 mg/mL for IV administration at a 1 mg/kg dose and 1 mg/mL for oral administration at a 5 mg/kg dose. All animals were weighed before dosing. The body weight was used to calculate the actual dose for each animal. The intravenous dose was administered through the jugular vein catheter in less than 1 minute. The oral dose volume was 1.5 mL for all PO rats administered through oral lavage.
For IV dosing, blood samples were collected using a pre-heparinized syringe via the carotid artery catheter before dosing and at t=2, 5, 15, 30, 60, 120, 180, 360, and 480 minutes post dosing. For PO dosing, blood samples were collected using a pre-heparinized syringe via the carotid artery catheter before dosing and at t=5, 15, 30, 60, 120, 180, 360, and 480 minutes post dosing. 250 uL of blood was obtained at each time point from each animal. Equal volumes of 0.9% normal saline were replaced to prevent dehydration. The whole blood samples were maintained on ice until centrifugation. Blood samples were centrifuged at 14,000 rpm for 10 minutes at 4° C., and the upper plasma layer was transferred into a clean vial and store at −80° C.

HsVR1 = molecular target: T1, HsVR1 (Homo sapiens, UniProt Q8NER1); experiment: Two-electrode voltage clamp recording of capsaicin induced VR1 current in Xenopus oocytes; type: cell-based; conditions: 250 nM capsaicin induced current; Xenopus oocytes injected with HsVR1 RNA; read-out: EPHYS IC50
T1 construct: expressed in transfected cells; host or cells: Xenopus oocytes injected with HsVR1 RNA
T1 sequence (Q8NER1 whole entry): as above
Procedure: Xenopus ovaries obtained from NASCO were isolated by enzymatic dissociation using collagenase (Worthington, 2 mg/ml). Oocytes were then individually injected with HsVR1 RNA (0.5 μg/μl). Injected oocytes are stored in standard oocyte incubation solution, ND96, containing 96 mM NaCl, 2 mM KCl, 1 mM MgCl2, 0.3 mM CaCl2 and 50 µg/ml Gentamicin at 16° C. Capsaicin induced VR1 current is observed in oocytes 4-5 days after injection. Eight oocytes are placed in the recording chambers. Each oocyte is impaled by 2 glass electrodes having resistances of 0.5 to 1 MOhm when filled with a 3 M KCl solution. Electrode advancement and oocyte impalement are under software control (OpusXpress 1.1, Axon Instruments). VR1 expression in the oocytes is verified using 250 nM capsaicin. Test solution delivery to the oocytes during the experiment is also under software control. The solutions are prepared in 96 well plates and robotically pipetted into the oocyte recording chambers by an 8 channel pipetter. Oocytes are exposed to several 250 μl applications of 250 nM capsaicin until a stable current amplitude is obtained with each application. A set of 96 well plates containing the test solutions is prepared so that the sequence of solution application to the oocyte is as follows: 250 μls of 250 nM capsaicin is followed by a several minute wash with standard oocyte saline. 1 ml of the test compound is then added at a particular test concentration, followed immediately by 250 μl of the compound at the same concentration plus 250 nM capsaicin. The capsaicin induced VR1 current is recorded in the presence and absence of test compound for each concentration. The standard test concentrations range from 0.3 to 2000 nM. Quantitative measurement of VR1 current block was carried out by calculating the area under the curve described by the inward current. The resulting numbers for capsaicin induced currents in the presence of increasing compound concentration are normalized to the maximum current obtained. These points are then plotted on a logarithmic scale and fitted by a Hill function. The IC50 values for each compound tested were then calculated from the resulting Hill fit. All compounds that inhibited capsaicin induced current greater than 50% were considered positives.

Sprague-Dawley male rats = experiment: Thermal hyperalgesia (carrageenan, paw withdrawal latency); type: in vivo; conditions: rat, 30 mg/kg, two hours after administration
Procedure: Sprague-Dawley male rats obtained from Charles River, San Diego, Calif. were purchased at 150-175 g, and held for at least one week before testing. Pain was induced by injecting 100 μl of 2% carrageenan in 0.9% saline sub-Q into the right ventral hindpaw while the animals were under isofluorane anesthesia. Animals were then dosed one hour after with a concentration of 30 mg/kg of Compound 1. Two hours later, after acclimatizing in testing chambers for 20-30 minutes, animals were tested on both hindpaws for latency of paw withdrawal using a thermal testing apparatus. 2-3 trials were conducted with 10 minutes between trials. […] The figure depicts the time in seconds until animals withdraw from thermal stimulation at baseline and two hours after administration of delivery vehicle, control compound, and the dose of 30 mg/kg of Compound 1.

[2] = Plasma protein binding by equilibrium dialysis, human plasma; type: in vitro ADME; conditions: pH 7.4, 37° C., read-out: plasma protein binding (% Bound)
Procedure: (§1) Membranes from Harvard/Amika with a molecular weight cutoff of 5,000 were rinsed with dH2O then placed in pH 7.4 PBS supplied by Gibco. The membranes were allowed to soak for 1 hour. A stock of the test article was pooled with Warfarin, Atropine at 2 mM in DMSO. The test article was then dosed into human plasma in sodium citrate, Rat Plasma, and Mouse Plasma to a final 10 μM concentration (0.5% DMSO v/v).
(§2) The pre-soaked membranes were then placed into dialysis chambers. 500 μL of PBS was added to one side of the chamber, and 500 μL of the Matrix containing the test article was added to the other side of the chamber. The chambers were then placed into an enclosed, heated rocker, which was pre-warmed to 37° C. and allowed to reach equilibrium for at least 22 hours. After 22 hours both sides were sampled. 100 μL of the donor side was added to 500 μL of PBS. 100 μL of the PBS side was added to 20 μL of fresh matrix. Samples then were crashed with 1:1 Acetonitrile and centrifuged at 10,000 RPM for 10 minutes. […]
(§3) Standards were prepared in a 1:5 plasma:PBS mixture at 5, 1.5, 0.5, 0.15, 0.05, 0.015 and 0.005 μM concentrations. […] Protein binding values were calculated as follows: % Bound=[(Concentration in Donor−Concentration in Receiver)/(Concentration in Donor)]×100. % Recovery=[(Concentration in donor+Concentration in Receiver)]/(Concentration in Normal Initial)]×100

[3] = Plasma protein binding by equilibrium dialysis, rat plasma; type: in vitro ADME; conditions: pH 7.4, 37° C., read-out: plasma protein binding (% Bound)
Procedure: as §1, §2, §3

Compound	% Inhibition @ 1 μM (hVR1)	Cmax [1] [ng/mL]	Tmax [1] [h]	Vd [1] [L/kg]	bioavailability [1] [%]	Cls (L/hrKg) [1] [L/hrKg]	T/2 [1] [h]	IC50 (HsVR1) [nM]	latency of paw withdrawal (reversal of thermal hyperalgesia) (Sprague-Dawley male rats)	fraction unbound at 22 h, 10 μM [2]	fraction unbound at 22 h, 10 μM [3]	IC50 (hVR1) [nM]
N#Cc1nc2c(c(Nc3ccc(C(F)(F)F)cc3)n1)CCN(c1ncccc1Cl)C2 [Example 37, 4-(4-(Trifluoromethyl)phenylamino)-7-(3-chloropyridin-2-yl)-5,6,7,8-tetrahydropyrido[3,4-d]pyrimidine-2-carbonitrile]	++++ (compound exhibited 76% or greater inhibition of calcium ion influx induced by proton stimulation)	49.4	3.33	12.4	17.9	4.02	2.15	101 to 500	–	–	–	–
FC(F)(F)c1ccc(Nc2ncnc3c2CCN(c2ncccc2Cl)C3)cc1 [Compound 1]	–	–	–	–	–	–	–	–	significantly increased latency of paw withdrawal	< 0.001	< 0.001	–
CS(=O)(=O)c1cccnc1N1CCc2c(ncnc2Nc2ccc(C(F)(F)F)cc2)C1 [Example 9, [7-(3-Methanesulfonyl-pyridin-2-yl)-5,6,7,8-tetrahydro-pyrido[3,4-d]pyrimidin-4-yl]-(4-trifluoromethyl-phenyl)-amine]	++++ (compound exhibited 76% or greater inhibition of calcium ion influx induced by proton stimulation)	156	1.67	13	47.9	1.99	4.37	101 to 500	–	–	–	101 to 500
FC(F)(F)c1ccc(Nc2ncnc3c2CCN(c2ncccc2Cl)C3)cc1 [Example 1, 7-(3-Chloropyridin-2-yl)-N-(4-(trifluoromethyl)phenyl)-5,6,7,8-tetrahydropyrido[3,4-d]pyrimidin-4-amine]	++++ (compound exhibited 76% or greater inhibition of calcium ion influx induced by proton stimulation)	1380	1.01	1.28	37	0.34	2.52	101 to 500	–	–	–	101 to 500
COCc1nc2c(c(Nc3ccc(C(F)(F)F)cc3)n1)CCN(c1ncccc1Cl)C2 [Example 35, 7-(3-Chloropyridin-2-yl)-N-(4-(trifluoromethyl)phenyl)-5,6,7,8-tetrahydro-2-(methoxymethyl)pyrido[3,4-d]pyrimidin-4-amine]	++++ (compound exhibited 76% or greater inhibition of calcium ion influx induced by proton stimulation)	–	–	–	–	–	–	101 to 500	–	–	–	–
FC(F)(F)c1ccc(Nc2ncnc3c2CCN(c2ncccc2C(F)(F)F)C3)cc1 [Example 12, (4-Trifluoromethyl-phenyl)-[7-(3-trifluoromethyl-pyridin-2-yl)-5,6,7,8-tetrahydro-pyrido[3,4-d]pyrimidin-4-yl]-amine]	++++ (compound exhibited 76% or greater inhibition of calcium ion influx induced by proton stimulation)	–	–	–	–	–	–	< 100	–	–	–	101 to 500
